The results in this text go back to a melting point compilation (Tetko et al.; mined from patent text by program, amines drawn as free bases though some values may be those of a salt).

For orientation: melting point means the temperature, or range, at which the solid turns liquid.

In the case of `CCOC(=O)C1=C(C)NC(c2cscn2)=NC1c1cccc(Cl)c1` (stereo unspecified), the melting point was 105 to 108 °C.

Turning to `CN(C)N=Cc1cc(-n2c(=O)cc(C(F)(F)F)n(C)c2=O)ccc1Cl`, the melting point fell in the range of 170 to 171 °C.

Take `O=c1cnc(-c2cc(-c3ccsc3)cc(-c3ccsc3)c2)nn1CC(F)(F)F`: the melting point lay in the range of 189 to 191 °C.

`O=S(=O)(Nc1ccc2ccc(OCc3ccc4ccccc4n3)cc2c1)C(F)(F)F` displayed a melting point of 172 to 175 °C.

Regarding `C(=C\c1nc(COc2ccc(CCCn3cccc3)cc2)co1)/c1ccccc1`, the melting point was in the range of 108 to 109 °C.

On to `CCCC(=O)Nc1ccc2oc3c(c2c1)CCCC3`, for which the melting point lay in the range of 133 to 135 °C.

`CCCc1nc2c(N)nc3cc(OC4CCOC4)ccc3c2n1CC(C)C` (stereo unspecified) came in with a melting point of 178 to 182 °C.

In the case of `COC(=O)c1ccc(-c2cccc(C=O)c2)cc1`, the melting point lay within 95 to 97 °C.

In turn, `CN(Cc1ccc([N+](=O)[O-])cc1)C(CO)CO` showed a melting point of 65 to 66 °C.

The compound `Nc1cc(Oc2cccc(O)c2)ccc1[N+](=O)[O-]` had a melting point of 137 °C.

Compound `CSc1cc(-c2ccccc2)nc(-c2cccc(CCl)c2)c1` registered a melting point of 56.8 °C.

Take `O=C1c2cccc3c4c(cc(c23)C(=O)N1O)OCOC4`: the melting point is above 350 °C.

`O=C(N1CCc2cc(S(=O)(=O)Cl)ccc2C1)C(F)(F)F`: the melting point is 110 to 112 °C.

In the case of `CN(CCc1cccc(OCc2ccccc2)c1)c1cnc(-c2ccccc2)c(-c2ccccc2)n1`, the melting point is 78 to 78.5 °C.

Compound `CCOc1nc2c(cnn2CC)nc1C(=O)Nc1nccs1` yielded a melting point of 151 to 152 °C.

On to `ClCCCCCOc1ccccc1OCCCCCCl`, for which the melting point was determined as 61 °C.

Consider `CCS(=O)(=O)c1ccc(-c2cc(C(F)(F)F)ccc2OCC(=O)O)cc1C(F)(F)F`, for which the melting point lay within 174 to 175 °C.

For the compound `Cc1nnc(-c2ccc3occ(-c4cc(Cl)ccc4F)c3c2)o1`, the melting point fell in the range of 187 to 188 °C.

On to `CCN(c1nc(C)cc(C(O)c2cnccc2-c2ccccc2OC)n1)c1ccc(C(C)C)cc1Br` (stereo unspecified), for which the melting point lay within 68 to 70 °C.

The compound `CCOC(=O)COc1cccc(C(NC(C)=O)(C(=O)OCC)C(=O)OCC)c1` had a melting point of 98.5 to 102 °C.

`CC(=O)O[C@@H]1OCC[C@@H]1NC(=O)[C@H](Cc1ccccc1)NC(=O)OCc1ccccc1` displayed a melting point of 175 to 176 °C.

`CC(=O)Nc1nc2c(s1)-c1nc(-c3cc(C#CC4CCNCC4)ccc3Cl)ncc1CC2` yielded a melting point of 162 °C.

In the case of `O=C(OC1CCCCCC1=O)c1ccccc1` (stereo unspecified), the melting point lay within 59 to 60 °C.

The compound `CC(=O)S[C@@H](CCc1ccccc1C)C(=O)O` yielded a melting point of 47 to 48 °C.

For the compound `OCCCc1cnoc1-c1ccc(Cl)c(F)c1`, the melting point was in the range of 51 to 52 °C.

As to `CCCCSc1ccc(C=O)cc1[N+](=O)[O-]`, the melting point was determined as 93 °C.

In turn, `CCc1cccc(N(C(=O)CCC(=O)O)c2cc(C(C)(C)C)c(O)c(C(C)(C)C)c2)c1` returned a melting point of 150 to 152 °C.

As for `O=C(c1ccccc1)c1cccc2cc[nH]c12`, the melting point lay within 100 to 104 °C.

Consider `O=C(O)CC1CSc2sccc2C1=O` (stereo unspecified), for which the melting point lay within 124 to 127 °C.

Regarding `COCCOC/C(=C\S(=O)(=O)c1ccc(C)cc1)C(=O)OC(C)(C)C`, the melting point lay within 40 to 41 °C.

The compound `NS(=O)(=O)c1ccc(-n2nc(C(F)(F)F)c(Cl)c2-c2ccc(Cl)cc2)cc1` yielded a melting point of 180 to 182 °C.

In turn, `COc1cc(CO)cnc1Cl` returned a melting point of 60 to 63 °C.

As to `Cc1noc(C)c1-c1cn(Cc2ccccc2)c(=O)c2ncccc12`, the melting point is 168 to 170 °C.

The compound `COc1cc(NC(C)=O)c(Cl)cc1C(=O)NN1CCN(CCC(C)C)CC1` yielded a melting point of 128 to 130 °C.

`Cc1ccc2nc3cc(C)c(=O)cc-3sc2c1`: the melting point is 177 °C.

Regarding `CCN1C(=O)Cc2cc(C=O)ccc21`, the melting point is 126 to 127 °C.

`NC(=O)c1cc(-n2cccn2)ccc1N` had a melting point of 147 to 149 °C.

The compound `CCCCCCOc1c(OC)cc(C(=O)NN=C2CCCCC2=Cc2ccccc2)cc1OC` gave a melting point of 158 to 160 °C.

As for `CON1CCC(C#N)(NO)CC1`, the melting point was in the range of 130 to 131 °C.

As for `N#Cc1cc(NC(=O)C2CCc3ccccc3C2)ccc1N1CCC(O)CC1` (stereo unspecified), the melting point is 163 to 165 °C.

With `COC(=O)C(Cl)=NNc1ccc(Cl)cc1`, the melting point was 149 to 150 °C.

Compound `CCOC1CC(n2cc(CC)c(=O)[nH]c2=O)OC1CNC(=O)C(C)Oc1ccc(Cl)cc1Cl` (mixture of isomers) gave a melting point of 121 to 124 °C.

With `CC(=O)Nc1ncc(Sc2ccc(NS(C)(=O)=O)cc2)s1`, the melting point lay in the range of 236 to 239 °C.

`O=C(c1ccc(-c2ccccc2)cc1)c1cccnc1Cl`: the melting point lay within 128 to 132 °C.

Take `CC(C)c1ccc(NC(=O)OC(C)(C)C)c(N)c1`: the melting point fell in the range of 100 to 101 °C.

As to `COc1ccc(CN2C(=O)C(O)(c3ccncc3Cl)c3cc(Cl)ccc32)c(OC)c1` (stereo unspecified), the melting point is 215 °C.

The compound `CC(=O)OC1C=C(C)C(=O)CC(C)(C)C1OC(=O)c1ccccc1` (stereo unspecified) yielded a melting point of 86 to 87 °C.

Regarding `COc1cc(N2CCC(N(C)C)C2)ccc1Nc1ncc2ccc(-c3ccccc3OC)n2n1` (stereo unspecified), the melting point lay within 70 to 78 °C.

As for `Cc1cc(O)ccc1-c1ccc(N)cc1`, the melting point is 156 to 157 °C.

Compound `CN(C)C(=O)NC(=CC(=O)Nc1cc(F)c(C#N)cc1F)C(F)(F)F` displayed a melting point of 138 °C.

In the case of `CCOC(=O)c1cnc2c(N(C)Cc3ccccc3)cc(CN3CCOCC3)cc2c1O`, the melting point fell in the range of 151 to 153 °C.

Take `NC1CCN(C2c3ccccc3COc3ccc(Br)cc32)CC1` (stereo unspecified): the melting point fell in the range of 142 to 144 °C.

The compound `CC1Oc2cc(CN3CCN(c4ccncc4)CC3)ccc2NC1=O` (stereo unspecified) registered a melting point of 130 to 134 °C.

The compound `CC(C)CCCC(C)C1CCC2C3CC=C4CC(OCCCCCCSC5OC(CO)C(O)C(O)C5O)CCC4(C)C3CCC12C` (stereo unspecified) displayed a melting point of 110 °C.

`O=C(N[C@H]1CC[C@H](CCN2CCN(c3nccc4c3CCO4)CC2)CC1)C1(O)CC1`: the melting point was 174 °C.

The compound `COc1cc(NC(=O)Nc2ccc(Oc3ccncc3)cc2)cc(C(F)(F)F)c1` displayed a melting point of 162 to 164 °C.

For the compound `O=Cc1cnn(Cc2ccccc2)c1-c1ccccc1`, the melting point lay within 99 to 100 °C.

In the case of `Cc1cc(C(C)N(O)C(N)=O)c(C)o1` (stereo unspecified), the melting point was in the range of 145 to 146 °C.

`O=C(NC12CC3CC(CC(C3)C1)C2)c1cc(O)c(O)c(Cl)c1` yielded a melting point of 244 to 247 °C.

On to `Cc1ccc(OCc2ccccc2)c(C(=O)O)c1`, for which the melting point is 98 to 100 °C.

In the case of `CCN(CC)P(N)(=O)N(c1ccc(S(=O)(=O)c2ccccc2)cc1)c1ccc(S(=O)(=O)c2ccccc2)cc1` (stereo unspecified), the melting point is 115 to 130 °C.

As for `Cc1ccc(S(=O)(=O)OC(=O)c2cccc(C(=O)OS(=O)(=O)c3ccc(C)cc3)c2)cc1`, the melting point is 172 to 178 °C.

For the compound `CCNc1nc2cc(COc3cccc(C=O)c3)ccc2o1`, the melting point lay within 85 to 90 °C.

Regarding `Nc1ccc(Oc2ccccc2)c(Cl)c1`, the melting point fell in the range of 31 to 33 °C.

In the case of `CC(=O)c1cc(-c2ccccc2)c(=O)n2c1-c1sccc1CC2`, the melting point is 149 to 150 °C.

With `CC(=O)c1ccc(OCCCCCCCCCCOc2ccccc2)o1`, the melting point was in the range of 74 to 77 °C.

The compound `O=[N+]([O-])c1cc(OCCCl)ccc1Cl` returned a melting point of 46 to 48 °C.

The compound `FC(F)(F)c1ccc2nc(N3CCN(c4ncncc4Cl)CC3)[nH]c2c1` displayed a melting point of 66.6 to 66.7 °C.

As to `CCN1C(=O)NCC1c1ccc(OC)c(OC2CC3CCC2C3)c1` (stereo unspecified), the melting point was 149 to 153 °C.

Consider `CN(C)C1(c2ccccc2)CCC(CNCCc2c[nH]c3ccccc23)CC1` (stereo unspecified), for which the melting point lay within 78 to 83 °C.

As for `O=c1[nH]c(=O)n(CCCCBr)c2ncccc12`, the melting point lay in the range of 139 to 141 °C.

`O=C(NCc1ccc(Cl)cc1)c1cnc2cc(I)ccc2c1O` showed a melting point of 248 to 250 °C.

For the compound `CC(C)CC(=O)OC(C)OC(=O)NC1(C(=O)O)CC1` (stereo unspecified), the melting point fell in the range of 117 to 119 °C.

Compound `CN1N=C(c2ccc(F)cc2)c2ccc(Cl)cc2CS1(=O)=O` gave a melting point of 250 to 251 °C.

`O=C(NCCn1ccccc1=O)c1cccnc1` came in with a melting point of 158 to 159 °C.

`COc1ccc(-c2c(Cl)c(CNC3CC3)nc3sc4c(c23)CCN(Cc2ccccc2)C4)cc1OC` registered a melting point of 131 to 132 °C.

In turn, `Cc1c(NC(=O)c2ccc(OC[C@@H]3CCCO3)cc2F)ccc2c1cc(CNCC(C)(C)O)n2C` gave a melting point of 118 °C.

`O=C(O)c1ccc(NC(=O)c2ccc(F)cc2)cc1`: the melting point was above 300 °C.

Compound `NC(=O)c1nc(-c2ccccc2)c[nH]1` had a melting point of 210 to 211 °C.

For `CC(C)S(=O)(=O)c1cc(OCCc2ccccn2)c2[nH]nc(Nc3nccs3)c2c1`, the melting point fell in the range of 190 to 191 °C.

In turn, `Cc1cc(Oc2c(Cl)cc(C(F)(F)F)cc2Cl)nn1C(=O)NCc1ccccn1` showed a melting point of 121 to 123 °C.

For the compound `OOC12C=CC=CC=CC=CC=CC1=CC=CO2` (stereo unspecified), the melting point was 104 to 106 °C.

Take `Cc1nc(N)sc1-c1ccnc(Nc2ccc(N3CCOCC3)cc2)n1`: the melting point lay within 300 to 304 °C.

Turning to `O=C(O)c1ccc2c(c1)CCCC2NC(=O)c1cccc(Oc2ccccc2)c1` (stereo unspecified), the melting point lay within 155 to 160 °C.

For the compound `C[C@H](NC(=O)CCn1cc(C2=C(c3cn(C)c4ccccc34)C(=O)NC2=O)c2ccccc21)C(=O)NCC(=O)N[C@@H](CCCCN)C(N)=O`, the melting point was in the range of 158 to 160 °C.

`Cc1cc2c(c3c1NC(=O)CC3(C)C)OC(CO)C2` (stereo unspecified) had a melting point of 165 to 166 °C.

Compound `CC(=O)N1CCC(CC(O)c2ccc(N(C)C)cc2)CC1` (stereo unspecified) registered a melting point of 119 to 120 °C.

`CCOC(=O)CCCCCOC(=O)c1c(I)c(NC(C)=O)c(I)c(NC(C)=O)c1I` came in with a melting point of 235 to 238 °C.

The compound `CN1CC(Cn2cccn2)CC2c3cccc4[nH]cc(c34)CC21` (stereo unspecified) registered a melting point of 192 to 194 °C.

`CN(C)c1ccc(C(=O)CCCCC2CCN(Cc3ccccc3)CC2)cc1` had a melting point of 121 to 123 °C.

In turn, `COc1cccc(NC(=O)c2ccc([N+](=O)[O-])cc2)c1` showed a melting point of 189 to 191 °C.
